As a reminder, the IC50 is the concentration at which inhibition is half-maximal.

Starred links: 1 amine or outer side, 2 acyl side, 3 side chain; linkers in the order of their positions; H or OH if unused. Positions of bridges follow the written chain, without caps; N, C: chain ends. Non-standard residues stand in square brackets, D forms with d. Residues, ends and D or L forms follow the SMILES beside them. *: point of attachment. hPhe(3,5-F2-4-CF3) = N[C@@H](CCc1cc(F)c(C(F)(F)F)c(F)c1)C(=O)O; hPhe(3-Cl-4-CF3) = N[C@@H](CCc1ccc(C(F)(F)F)c(Cl)c1)C(=O)O; X71 = O=C([C@H](Cc1cc(Cl)cc(I)c1)N[*:1])[*:2]; X62 = O=C([C@H](Cc1cc(I)ccc1Br)N[*:1])[*:2]; NMeGly(cPent) = CN[C@H](C(=O)O)C1CCCC1; Pro(4,4-F2) = O=C(O)[C@@H]1CC(F)(F)CN1; NMeY = CN[C@@H](Cc1ccc(O)cc1)C(=O)O; NMeCha = CN[C@@H](CC1CCCCC1)C(=O)O; NMeChg = CN[C@H](C(=O)O)C1CCCCC1; NMeD = CN[C@@H](CC(=O)O)C(=O)O; NMeL = CN[C@@H](CC(C)C)C(=O)O; NMeNva = CCC[C@H](NC)C(=O)O; NMeAbu = CC[C@H](NC)C(=O)O; NMeA = CN[C@@H](C)C(=O)O; NMeAib = CNC(C)(C)C(=O)O; Nle = CCCC[C@H](N)C(=O)O; Piperidide = C1CCN(*)CC1; Pyrrolidide = C1CCN(*)C1; Ac5c = NC1(C(=O)O)CCCC1; Aze = O=C(O)[C@@H]1CCN1; Ac4c = NC1(C(=O)O)CCC1; Sar = CNCC(=O)O

This assay deals with T1, Kras and SOS1 (biotin-tagged human Kras loaded with GDP, His-tagged human SOS1) (Homo sapiens, UniProt P01116, G12D).
T1 construct: made in house; host or cells: E. coli (stated for Kras only)
T1 sequence (P01116 1-188 isoform P01116-2 G12D): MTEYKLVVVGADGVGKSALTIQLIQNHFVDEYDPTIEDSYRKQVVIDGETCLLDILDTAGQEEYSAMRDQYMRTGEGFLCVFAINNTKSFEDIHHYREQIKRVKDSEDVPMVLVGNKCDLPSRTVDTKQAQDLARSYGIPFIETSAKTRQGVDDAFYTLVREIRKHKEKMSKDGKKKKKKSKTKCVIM
As to the kind of experiment: Protein-protein interaction inhibition between Kras and SOS1 (KrasGl2D-SOS PPI) using AlphaScreen. It counts as binding. Conditions: AlphaScreen; biotin-tagged human Kras loaded with GDP, His-tagged human SOS1; read-out: KRAS G12D-SOS PPI IC50. Summed up:
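Donor beads (nickel) hold His-SOS1; acceptor beads (streptavidin) hold biotin-Kras bound to GDP. Signal measured at 520-620 nm following 680 nm excitation.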
(In general: Alpha assays give light when donor and acceptor beads are brought close together.)
`CCCC[C@@H]1NC(=O)[C@H](Cc2cc(I)ccc2Br)NC(=O)CN(C)C(=O)[C@H](Cc2ccc(OC)cc2)N(C)C(=O)[C@@H]2CCN2C(=O)[C@H](C)N(C)C(=O)[C@H]([C@@H](C)CC)NC(=O)[C@H](CC)N(C)C(=O)C[C@@H](C(=O)N2CCCCC2)N(C)C(=O)[C@H](CC(C)C)NC(=O)C(C)(C)N(C)C1=O` [Compound 1155] ([NMeAbu]I[NMeA][Aze][NMeY](Me)[Sar][X62][Nle][NMeAib]L[NMeD]-Piperidide; lactam N-11): the IC50 is 170000 pM.
With `CCCC[C@@H]1NC(=O)[C@H](Cc2cc(Cl)cc(I)c2)NC(=O)CN(C)C(=O)[C@H](Cc2ccc(OC)cc2)N(C)C(=O)[C@@H]2CCN2C(=O)[C@H](C)N(C)C(=O)[C@H]([C@@H](C)CC)NC(=O)[C@H](CC)N(C)C(=O)C[C@@H](C(=O)N2CCCCC2)N(C)C(=O)[C@H](CC(C)C)NC(=O)C(C)(C)N(C)C1=O` [Compound 1156] ([NMeAbu]I[NMeA][Aze][NMeY](Me)[Sar][X71][Nle][NMeAib]L[NMeD]-Piperidide; lactam N-11), the IC50 was 140000 pM.
Consider `CC[C@H](C)[C@@H]1NC(=O)[C@H](CC(C)C)N(C)C(=O)C[C@@H](C(=O)N2CCCCC2)N(C)C(=O)[C@H](C2CCCCC2)N(C)C(=O)[C@H](C(C)C)NC(=O)[C@@H]2CCCN2C(=O)[C@H](CCc2ccc(C(F)(F)F)c(Cl)c2)NC(=O)CN(C)C(=O)[C@H](CC2CCCCC2)N(C)C(=O)CN(C)C(=O)CN(C)C1=O` [Compound 1157] ([NMeL]I[Sar][Sar][NMeCha][Sar][hPhe(3-Cl-4-CF3)]PV[NMeChg][NMeD]-Piperidide; lactam N-11), for which the IC50 is 1600 pM.
Consider `CCC[C@H]1C(=O)N[C@@H]([C@@H](C)CC)C(=O)N(C)CC(=O)N(C)CC(=O)N(C)[C@@H](CC2CCCCC2)C(=O)N(C)CC(=O)N[C@@H](CCc2cc(F)c(C(F)(F)F)c(F)c2)C(=O)N2CC(F)(F)C[C@H]2C(=O)NC2(CCCC2)C(=O)N(C)[C@@H](C2CCCCC2)C(=O)N(C)[C@H](C(=O)N2CCCC2)CC(=O)N1C` [Compound 1160] ([NMeNva]I[Sar][Sar][NMeCha][Sar][hPhe(3,5-F2-4-CF3)][Pro(4,4-F2)][Ac5c][NMeChg][NMeD]-Pyrrolidide; lactam N-11), for which the IC50 is 420 pM.
Turning to `CC[C@H](C)[C@@H]1NC(=O)[C@H](CC(C)C)N(C)C(=O)C[C@@H](C(=O)N2CCCC2)N(C)C(=O)[C@H](C2CCCCC2)N(C)C(=O)C2(CCC2)NC(=O)[C@@H]2CC(F)(F)CN2C(=O)[C@H](CCc2ccc(C(F)(F)F)c(Cl)c2)NC(=O)CN(C)C(=O)[C@H](CC2CCCCC2)N(C)C(=O)CN(C)C(=O)CN(C)C1=O` [Compound 1163] ([NMeL]I[Sar][Sar][NMeCha][Sar][hPhe(3-Cl-4-CF3)][Pro(4,4-F2)][Ac4c][NMeChg][NMeD]-Pyrrolidide; lactam N-11), the IC50 is 460 pM.
The value for `CC[C@H](C)[C@@H]1NC(=O)[C@H](CC(C)C)N(C)C(=O)C[C@@H](C(=O)N2CCCC2)N(C)C(=O)[C@H](C2CCCCC2)N(C)C(=O)C2(CCC2)NC(=O)[C@@H]2CCCN2C(=O)[C@H](CCc2cc(F)c(C(F)(F)F)c(F)c2)NC(=O)CN(C)C(=O)[C@H](CC2CCCCC2)N(C)C(=O)CN(C)C(=O)CN(C)C1=O` [Compound 1165] ([NMeL]I[Sar][Sar][NMeCha][Sar][hPhe(3,5-F2-4-CF3)]P[Ac4c][NMeChg][NMeD]-Pyrrolidide; lactam N-11) was 730 pM; that for `CC[C@H](C)[C@@H]1NC(=O)[C@H](CC(C)C)N(C)C(=O)C[C@@H](C(=O)N2CCCC2)N(C)C(=O)[C@H](C2CCCC2)N(C)C(=O)C2(CCCC2)NC(=O)[C@@H]2CC(F)(F)CN2C(=O)[C@H](CCc2cc(F)c(C(F)(F)F)c(F)c2)NC(=O)CN(C)C(=O)[C@H](CC2CCCCC2)N(C)C(=O)CN(C)C(=O)CN(C)C1=O` [Compound 1166] ([NMeL]I[Sar][Sar][NMeCha][Sar][hPhe(3,5-F2-4-CF3)][Pro(4,4-F2)][Ac5c][NMeGly(cPent)][NMeD]-Pyrrolidide; lactam N-11) was 470 pM.

(Values after patent publication US12371454B2, “Cyclic peptide compound having Kras inhibitory action” (priority 2019, dated 2025).)
